The source of these data is patent US10501454B2, “Monocyclic β-lactam-siderophore conjugate, and preparation method and use thereof” (Shanghai Institute of Materia Medica, Chinese Academy of …, priority 2016, dated 2019).

Assay type in all cases: cell-based
The test system of assay [1] is Escherichia coli ATCC 35218. Briefly: MIC, broth microdilution, iron-deficient MH medium. The note with it: Escherichia coli, ATCC35218; iron-deficient MH medium (16 mg/L 2,2'-bipyridine); quality control strain; read-out: Antibacterial activity MIC, Escherichia coli ATCC 35218. How it is done:
(§1) Strain for quality control: Escherichia coli ATCC35218, purchased from National Center of Clinical Laboratory.
(§2) Medium: MH liquid medium (OXOID).
(§3) Culture condition: cells were incubated at 35-37° C. for 16-18 h.
(§4) The broth microdilution method recommended by Clinical and Laboratory Standards Institute (CLSI), Performance Standards for Antimicrobial Susceptibility Testing; Twenty-Third Informational Supplement, M02-All, M07-A9 and M11-A8, 2013 was used to determine the MIC value of each test sample against each test strain in the normal MH medium and iron-deficient MH medium.
(§5) BPL was added to the normal MH medium to obtain a final concentration of 16 mg/L; According to the method in Section 1.2.1, 100 μl of each test sample solution at different concentrations was aspirated to the 1st to 10th well in a 96-well sterile polystyrene plate to obtain the final drug concentrations of 16, 8, 4, 2, 1, 0.5, 0.25, 0.125, 0.06, and 0.03 mg/L, respectively. Then, 100 μl of the test bacterial liquid was added to each well (200 μl per well), and the final concentration of the bacterial liquid was approximately 10^4 CFU/ml. After sealing, it was placed in a 35-37° C. incubator for 18-20 hours for testing the result. The OD600 value was measured by a microplate reader, Minimal Inhibitory Concentration (MIC) of a drug is the lowest concentration of the drug which prevents growth of bacteria in the wells.

Assay [2] concerns Klebsiella pneumoniae (4 strains). Briefly: MIC, broth microdilution, normal MH medium. The settings on record: for MIC: Klebsiella pneumoniae, multi-drug resistant clinical isolates (KPC2), read-out: Antibacterial activity MIC, Klebsiella pneumoniae (4 strains); for times more effective than BAL30072 in inhibitory activity against Klebsiella pneumoniae: from MIC of Table 2. How it is done: (§6) Supplier of the strains: all of the above strains were provided by Sichuan Primed Shines Bio-tech Co., Ltd. A single colony was isolated by streaking on agar plates for each strain prior to the experiment, and the cells freshly cultured at 37° C. overnight were appropriately diluted for the experiment.
as §2, §3, §4
(§7) After diluting each sample to different concentrations with normal MH medium, 100 μl of each test sample solution at different concentrations was separately aspirated onto a 96-well sterile polystyrene plate. Drug solutions were added to the 1st to 10th well with the final concentrations of 16, 8, 4, 2, 1, 0.5, 0.25, 0.125, 0.06, and 0.03 mg/L in each well, respectively. The 11th well, as a blank control, was not added with drugs and bacteria. The 12th well, as a bacterial growth control, was added with bacteria but no drug.
The OD600 value was measured by a microplate reader, Minimal Inhibitory Concentration (MIC) of a drug is the lowest concentration of the drug which prevents growth of bacteria in the wells. 1.2.2 MIC in iron-deficient MH medium

Assay [3] shares this test system. Briefly: MIC, broth microdilution, iron-deficient MH medium. The settings on record: for MIC: Klebsiella pneumoniae, iron-deficient MH medium (16 mg/L 2,2'-bipyridine), multi-drug resistant clinical isolates (KPC2), read-out: Antibacterial activity MIC, Klebsiella pneumoniae (4 strains); for times more effective than BAL30072 in inhibitory activity against Klebsiella pneumonia: iron-deficient MH medium, from MIC of Table 3. Here is the method:
as §6, §2, §3, §4, §5
In general terms: Dilution methods test growth across graded concentrations, often in twofold steps.

Assay [4] concerns Pseudomonas aeruginosa (4 strains). Briefly: MIC, broth microdilution, iron-deficient MH medium. The note with it: Pseudomonas aeruginosa; iron-deficient MH medium (16 mg/L 2,2'-bipyridine); multidrug-resistant clinical isolates (integrator I, IMP4); read-out: Antibacterial activity MIC, Pseudomonas aeruginosa (4 strains). How it is done:
as §6, §2, §3, §4, §5

Assay [5] concerns Acinetobacter baumannii (4 strains). In words: MIC, broth microdilution, iron-deficient MH medium. The settings on record: Acinetobacter baumannii; iron-deficient MH medium (16 mg/L 2,2'-bipyridine); multidrug-resistant clinical isolates (integron I, OXA23); read-out: Antibacterial activity MIC, Acinetobacter baumannii (4 strains). Here is the method:
as §6, §2, §3, §4, §5

In assay [6] the test system is Escherichia coli (4 strains). Briefly: MIC, broth microdilution, iron-deficient MH medium. The settings on record: Escherichia coli; iron-deficient MH medium (16 mg/L 2,2'-bipyridine); clinical isolates (ESBLs); read-out: Antibacterial activity MIC, Escherichia coli (4 strains). How it is done: as §6, §2, §3, §4, §5
Assay [7] relates to Pseudomonas aeruginosa (4 strains). Briefly: MIC, broth microdilution, normal MH medium. The note with it: Pseudomonas aeruginosa, multidrug-resistant clinical isolates (integrator I, IMP4), read-out: Antibacterial activity MIC, Pseudomonas aeruginosa (4 strains). Here is the method: as §6, §2, §3, §4, §7
(§8) The test bacterial liquid was adjusted to a bacterial suspension of 0.5 Mcfarland standard with physiological saline, and diluted with MH broth at 1:100, and then added to the drug solution so that a final concentration of the bacterial liquid was approximately 10^4 CFU/ml; 100 μl of the bacterial liquid was further added to each of the above wells (the total volume in each well is 200 μl), which was sealed and placed in a 35-37° C. incubator for 18-20 h for testing the result. The OD600 value was measured by a microplate reader, Minimal Inhibitory Concentration (MIC) of a drug is the lowest concentration of the drug which prevents growth of bacteria in the wells. 1.2.2 MIC in iron-deficient MH medium

Assay [8] has as its system Acinetobacter baumannii (4 strains). In words: MIC, broth microdilution, normal MH medium. The note with it: Acinetobacter baumannii, read-out: Antibacterial activity MIC, Acinetobacter baumarmii (4 strains). How it is done: as §6, §2, §3, §4, §7, §8
The subject of assay [9] is Escherichia coli (4 strains). In words: MIC, broth microdilution, normal MH medium. The settings on record: for MIC: Escherichia coli, clinical isolates (ESBLs), read-out: Antibacterial activity MIC, Escherichia coli (4 strains); for times more effective than BAL30072 in inhibitory activity against Escherichia coli: from MIC of Table 2. Here is the method:
as §6, §2, §3, §4, §7, §8

Assay [10] relates to Escherichia coli ATCC 35218. In words: MIC, broth microdilution, normal MH medium. The settings on record: Escherichia coli, ATCC35218, quality control strain, read-out: Antibacterial activity MIC, Escherichia coli ATCC 35218. How it is done:
as §1, §2, §3, §4, §7, §8

Structures are written as SMILES. Counter-ions that a name gives are not always drawn.

For `CC(O/N=C(\C(=O)N[C@@H]1C(=O)N(OS(=O)(=O)O)C1(C)C)c1nc(N)sc1Cl)c1cc(=O)c(O)cn1O` (stereo partly drawn) [Compound 22, (3S)-3-((Z)-2-(2-amino-5-chlorothiazol-4-yl)-2-((1-(1,5-dihydroxy-4-oxo-1,4-dihydropyridin-2-yl)ethoxyl)imine)acetamido)-2,2-dimethyl-4-oxoazetidine-1-hydrogen sulfate], the MIC (usually the lowest concentration found to suppress growth) in assay [1] was less than 0.03 mg/L; in assay [2], 1 mg/L; in assay [3] it was 1 mg/L; in assay [4] it was 0.5 to 1 mg/L; in assay [5] it was 1 mg/L; in assay [6] it was 0.06 to 0.25 mg/L. Further, the MIC in assay [7] was 0.5 to 2 mg/L; in [8], 2 mg/L; in assay [9], 0.06 to 0.5 mg/L; in assay [10], less than 0.03 mg/L. The “times more effective than BAL30072 in inhibitory activity against Klebsiella pneumoniae” value in assay [2] is listed as 64 times. Moreover, the “times more effective than BAL30072 in inhibitory activity against Klebsiella pneumonia” value in assay [3] turned out to be 64 times. Further, the “times more effective than BAL30072 in inhibitory activity against Escherichia coli” value in assay [9] is on record as 4-16 times.

`CO/N=C(\C(=O)N[C@@H]1C(=O)N2C(C(=O)O)=CCS[C@H]12)c1csc(N)n1` [ceftizoxime sodium, reference compound]: the MIC in [2] is 32 to 64 mg/L; in assay [7] it was greater than 64 mg/L; in assay [8] it was 32 to 64 mg/L; in assay [9], 0.5 to 2 mg/L; in [10], 0.25 mg/L.

For `C[C@H](O/N=C(\C(=O)N[C@@H]1C(=O)N(OS(=O)(=O)O)C1(C)C)c1nc(N)sc1Cl)c1cc(=O)c(O)cn1O` [Compound 26, (S)-3-((Z)-2-(2-amino-5-chlorothiazol-4-yl)-2-(((S)-1-(1,5-dihydroxy-4-oxo-1,4-dihydropyridin-2-yl)ethoxy)imine)acetamido)-2,2-dimethyl-4-oxoazetidine-1-hydrogen sulfate], the minimal inhibitory concentration (MIC) in [1] is less than 0.03 mg/L; in assay [2] it was 1 to 4 mg/L; in [3], 0.5 to 4 mg/L; in assay [4], 0.25 to 1 mg/L; in assay [5], 0.5 to 1 mg/L; in assay [6] it was 0.03 to 0.25 mg/L. Moreover, the MIC in [7] was 0.5 to 1 mg/L; in [8], 1 mg/L; in [9], 0.25 to 1 mg/L; in [10], less than 0.03 mg/L. The “times more effective than BAL30072 in inhibitory activity against Klebsiella pneumonia” value in assay [3] is 16-128 times.

In the case of `CC(C)[C@H](O/N=C(\C(=O)N[C@@H]1C(=O)N(OS(=O)(=O)O)C1(C)C)c1csc(N)n1)c1cc(=O)c(O)cn1O` [Compound 28, (3S)-3-((Z)-2-(2-aminothiazol-4-yl)-2-(((S)-1-(1,5-dihydroxy-4-oxo-1,4-Dihydropyridin-2-yl)-2-methylisopropyloxy)imine)acetamido)-2,2-dimethyl-4-oxoazetidine-1-hydrogen sulfate], the minimum inhibitory concentration (MIC) was less than 0.03 mg/L in assay [1]; 1 mg/L in assay [3]; 0.125 to 1 mg/L in assay [4]; 1 to 2 mg/L in [5]; 0.125 to 0.25 mg/L in assay [6]. Also, the “times more effective than BAL30072 in inhibitory activity against Klebsiella pneumonia” value in [3] came out at 64 times.

For the compound `CC(C)[C@H](O/N=C(\C(=O)N[C@@H]1C(=O)N(OS(=O)(=O)O)C1(C)C)c1nc(N)sc1Cl)c1cc(=O)c(O)cn1O` [Compound 29, (3S)-3-((Z)-2-(2-amino-5-chlorothiazol-4-yl)-2-(((S)-1-(1,5-dihydroxy-4-oxo-1,4-dihydropyridin-2-yl)-2-methylpropoxy)imine)acetamido)-2,2-dimethyl-4-oxoazetidine-1-hydrogen sulfate], the minimum inhibitory concentration (MIC) is less than 0.03 mg/L in assay [1]; 1 to 4 mg/L in assay [2]; 0.25 to 0.5 mg/L in [3]; 0.06 to 1 mg/L in [4]; 0.5 to 1 mg/L in assay [5]; 0.125 to 1 mg/L in [6]. Also, the minimum inhibitory concentration (MIC) was 0.25 to 2 mg/L in assay [7], 1 to 2 mg/L in assay [8], 1 to 2 mg/L in assay [9] and less than 0.03 mg/L in assay [10]. Further, the “times more effective than BAL30072 in inhibitory activity against Klebsiella pneumonia” value in [3] was 128-256 times.

In the case of `CC(C)C(O/N=C(\C(=O)N[C@@H]1C(=O)N(OS(=O)(=O)O)C1(C)C)c1nc(N)sc1Cl)c1cc(=O)c(O)cn1O` (stereo partly drawn) [Compound 24, (3S)-3-((Z)-2-(2-amino-5-chlorothiazol-4-yl)-2-((1-(1,5-dihydroxy-4-oxo-1,4-dihydropyridin-2-yl)-2-methylpropoxy)imine)acetamido)-2,2-dimethyl-4-oxoazetidine-1-hydrogen sulfate], the minimal inhibitory concentration (MIC) in [1] is less than 0.03 mg/L; in [3], 0.125 to 0.5 mg/L; in assay [4], 0.25 to 2 mg/L; in [5], 1 to 2 mg/L; in assay [6] it was 0.06 to 0.25 mg/L. In [3], the “times more effective than BAL30072 in inhibitory activity against Klebsiella pneumonia” value is reported as 128-512 times.

As for `CSCC(O/N=C(\C(=O)N[C@@H]1C(=O)N(OS(=O)(=O)O)C1(C)C)c1csc(N)n1)c1cc(=O)c(O)cn1O` (stereo partly drawn) [Compound 16, (3S)-3-((Z)-2-(2-aminothiazol-4-yl)-2-((1-(1,5-dihydroxy-4-oxo-1,4-dihydropyridin-2-yl)-2-(methylthio)ethoxy)imine)acetamido)-2,2-dimethyl-4-oxoazetidine-1-hydrogen sulfate], the MIC in [1] was less than 0.03 mg/L; in [2], 0.5 to 1 mg/L; in [3], 0.5 to 1 mg/L; in assay [4], 0.125 to 1 mg/L; in assay [5], 0.5 to 1 mg/L; in [6], 0.06 to 0.25 mg/L. In addition, the MIC in [7] is 0.25 to 2 mg/L; in assay [8] it was 1 to 2 mg/L; in assay [9], 0.125 to 0.5 mg/L; in assay [10] it was less than 0.03 mg/L. In [2], the “times more effective than BAL30072 in inhibitory activity against Klebsiella pneumoniae” value was 64-128 times. For the same compound, in assay [3], the “times more effective than BAL30072 in inhibitory activity against Klebsiella pneumonia” value was 64-128 times. For the same compound, the “times more effective than BAL30072 in inhibitory activity against Escherichia coli” value in assay [9] was 2-8 times.
